Measurements reported in patent US20100286035A1, “NEUROMEDIN U DERIVATIVE” (Takeda Pharmaceutical Company Limited, priority 2007, published 2010).

Assays:
[1] = target: T1, Human FM3 (Homo sapiens, UniProt Q9HB89); assay: Receptor binding study: 125I-NMU 8 labeled ligand binding inhibition to the FM3 membrane fraction; conditions: FM3/CHO membrane fraction, 25° C. for 60 min, read-out: FM3 RBA IC50
T1 construct: expressed in transfected cells; host or cells: CHO (dhfr-) cells; membrane fraction
T1 sequence (Q9HB89 1-426 R203Q): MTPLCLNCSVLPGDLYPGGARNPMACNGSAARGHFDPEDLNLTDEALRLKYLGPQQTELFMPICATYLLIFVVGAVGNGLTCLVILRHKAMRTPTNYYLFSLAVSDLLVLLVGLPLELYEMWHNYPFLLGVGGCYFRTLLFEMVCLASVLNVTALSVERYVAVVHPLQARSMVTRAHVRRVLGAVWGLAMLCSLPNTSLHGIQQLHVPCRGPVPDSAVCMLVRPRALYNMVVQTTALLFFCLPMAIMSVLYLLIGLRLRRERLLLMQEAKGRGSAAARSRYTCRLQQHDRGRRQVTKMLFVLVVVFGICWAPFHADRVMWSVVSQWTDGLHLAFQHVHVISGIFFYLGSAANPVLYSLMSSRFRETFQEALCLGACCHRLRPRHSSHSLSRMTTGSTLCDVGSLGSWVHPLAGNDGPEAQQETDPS
Procedure: Human FM3 represented CHO cells (dhfr-) and human TRI represented CHO cells (dhfr-) were cultured under 5% carbon dioxide conditions at 37° C. using a 10% dialyzed FBS-containing MEMα (Invitrogen) culture. The adhered cells were peeled with 10 ml of 0.1 mM EDTA containing DPB-S (Invitrogen) and cells were recovered by centrifugal separation at 4° C. at 1000 rpm for 10 min. 15 ml of homogenizer buffer (10 mM NaHCO3 (pH 7.4), 5 mM EDTA, Protein Inhibitors=0.5 mM PMSF, 10 μg/ml Pepstatin A, 20 μg/ml Leupeptin, 4 μg/ml E-64) were added to the cell pellets obtained. […]
Next, the reactivity between the radiation labeled ligand ^125I-NMU 8 and each receptor represented cell membrane fraction was analyzed by scatchard analysis using a reactive buffer (50 mM HEPES (pH 6.8), 1 mM EDTA, 0.1% BSA, Protein Inhibitors). […]
Namely, dilution strings of NMU derivatives and PEG conjugates were provided and diluted membrane fraction solutions (200 μl) were added. […] According to the aforementioned operations, the amount of binding of the labeled ligand remaining in the filter was measured and the IC50 values were calculated using graph pad PRISM (FIG. 4A (FM3 receptor binding), FIG. 4B (TGR1 receptor binding), FIG. 4C (FM3 receptor binding), FIG. 4D (TGR1 receptor binding) Table 9).

[2] = system: male C57BL/6J mice; assay: Test Example 2: antifeedant activity of NMU-23 and NMU-8 in mice; type: in vivo; conditions: peripheral administration
Procedure: 7 weeks old male C57BL/6J mice (mean bodyweight: 25 g) delivered from the Japan Charles River Company were raised for 5 to 10 days after delivery under a feeding environment regulated for temperature and humidity with lighting time (25° C., 12 hours of lighted period and 12 hours of dark period, light was lit at 8:00). Four animals were placed in one cage. After handling the mice for 5 to 8 days, the animals were housed singly in each cage where a floor mesh was spread and acclimated by intraperitoneal injection for 3 days prior to the administration of a peptide. The animals acclimated were fasted for 16 hours from 18:00 prior to the administration of the peptide. However, the animals had free access to drinking water. […] After the injection of the peptide solution, MF feed which had been weighed (Oriental Yeast Industry) was given freely to the mice. Further, the residual amount of the feed was measured after 3, 6 and 24 hours. The food intakes at 3, 6 and 24 hours were calculated by subtracting the residual amount of the feed after 3, 6 and 24 hours from the amount of the feed that was originally given.
[In FIG. 2, * and ** tested by T-tests indicated to be lower at the levels of significance of 0.05 and 0.01 (P<0.05 and P<0.01]

IC50 [1]: 0.19 nM
SMILES: CC(C)C[C@H](NC(=O)[C@H](Cc1ccccc1)NC(=O)[C@@H](N)Cc1ccc(O)cc1)C(=O)N[C@@H](Cc1ccccc1)C(=O)N[C@@H](CCCNC(=N)N)C(=O)N1CCC[C@H]1C(=O)N[C@@H](CCCNC(=N)N)C(=O)N[C@@H](CC(N)=O)C(N)=O [NMU-8, Try-Phe-Leu-Phe-Arg-Pro-Arg-Asn-NH2]
antifeedant activity via peripheral administration [2]: did not express an antifeedant activity
